Measured values: PubChem BioAssay AID2060500 (Molecular Pharmacology Branch, DTP, NCI, 2025)
pIC50: −log10 of the molar value.

Test system: 596521-263-R-J1-PDC complex spheroids, viability % of control
Assay: Anticancer human tumor 596521-263-R-J1-PDC patient-derived soft tissue sarcoma cell line growth inhibition [GQUAD]
Conditions: for pIC50: curve of first compound; for viability, T/C: stronger effect = lower value
Source text: DNA G-quadruplex Stabilizer Agents in Combinations in Complex Spheroids
A high-throughput screen of multi-cell type tumor spheroids was designed to identify active combinations of DNA G-quadruplex stabilizer agents and targeted small molecules. Complex spheroids include a stromal component modeled by human endothelial cells (HUVEC) and fibroblasts modeled by human mesenchymal stem cells (MSCs). The concentration ranges selected for each drug and investigational agent were based upon clinically achievable concentrations if the clinical Cmax of the agent was known.
Compounds. The drugs and investigational agents: pidnarulex (CX-5461; NSC782164), APTO-253 (NSC789042), BRACO-19 (NSC847499), peposertib (NSC802822), ceralasertib (NSC780249), elimusertib (NSC800525), camonsertib (NSC841442), AZD-1390 (NSC803789), olaparib (NSC753686), talazoparib (NSC767125), ART-558 (NSC835418), sotorasib (NSC818433), MRTX-1133 (NSC836407), SN-38 (NSC673596), topotecan (NSC609699), etoposide (NSC141540), doxorubicin (NSC123127), gemcitabine (NSC613327), 5-fluorouracil (NSC19893), paclitaxel (NSC125973), vemurafenib (NSC761431), panobinostat (NSC761190), R-306465 (JNJ-16241199; NSC773264), adavosertib (NSC754352), TP-3654 (NSC805149), carboplatin (NSC241240), KSQ-4279 (NSC840948), and staurosporine (NSC755774) were obtained from the National Cancer Institute (NCI) Developmental Therapeutics Program Chemical Repository (34). The FDA-approved anticancer drug set is available from the NCI Developmental Therapeutics Program. […] The stock solutions were prepared in dimethyl sulfoxide (DMSO, Sigma-Aldrich, St. Louis, MO, cat. D2650) at 800-fold the tested concentration and stored at -70 degrees C prior to their use. All drugs and investigational agents were tested over a range starting from a high concentration at or near the clinical Cmax and decreasing in half-log increments. If the clinical Cmax for an agent had not been determined, the highest concentration tested was 10 microM.
2.3 Cell Culture. All cells were maintained in an incubator at 37 degrees C and 5% CO2 with 95% humidity. The PDC lines were cultured according to standard operating procedures established by the NCI PDMR. All PDCs were thawed and cultured in Matrigel-coated flasks prepared with a working solution of 1X Ham's F-12 nutrient mix, without supplementation (Invitrogen, cat. 11765054), 100 U/mL penicillin-streptomycin (Invitrogen, cat. 15140122), and 2.5% Matrigel (Corning Inc., cat. 354248) for the first three passages. The 857933-349-R-J2-PDC line was cultured in 6C/Colon 1B media, which includes advanced DMEM/F-12 (Thermo Fisher Scientific, cat. 12634028), 10 mM HEPES (Thermo Fisher Scientific, cat. 15630080), 1X GlutaMAX supplement (Thermo Fisher Scientific, cat. 35050061), 0.1 mg/mL primocin (InvivoGen, cat. ant-pm-2), 10% defined fetal bovine serum, heat inactivated (HyClone Laboratories Inc., cat. SH30070.03HI), 50% L-WRN conditioned media (ATCC, cat. CRL-3276), 1.25 mM N-Acetyl-L-cysteine (Sigma-Aldrich, cat. A9165), 10 mM nicotinamide (Sigma-Aldrich, cat. N0636), 1X B-27 supplement (Thermo Fisher Scientific, cat. 17504044), 1X N-2 supplement (Thermo Fisher Scientific, cat. 17502048), 10 microM Y-27632 dihydrochloride (Tocris Bioscience, cat. 1254), and 50 ng/mL human EGF recombinant protein (Thermo Fisher Scientific, cat. PHG0311). The 485176-168-R4-J1-PDC line was cultured in Panc media, which includes all 6C/Colon 1B media components plus 100 ng/mL human FGF-10 (Thermo Fisher Scientific, cat. 100-26), 500 nM SB-431542 (Selleckchem, cat. S1067), and gastrin (Tocris, cat. 3006).
[…]

[1] = second compound 0.0316 µM, first compound 0.0316 µM
[2] = second compound 0.0316 µM, first compound 0.1 µM
[3] = second compound 0.0316 µM, first compound 0.316 µM
[4] = second compound 0.0316 µM, first compound 1 µM
[5] = second compound 0.0316 µM, first compound 3.16 µM
[6] = second compound 0.0316 µM, first compound 10 µM
[7] = second compound 0.1 µM, first compound 0.0316 µM
[8] = second compound 0.1 µM, first compound 0.1 µM
[9] = second compound 0.1 µM, first compound 0.316 µM
[10] = second compound 0.1 µM, first compound 1 µM
[11] = second compound 0.1 µM, first compound 3.16 µM
[12] = second compound 0.1 µM, first compound 10 µM
[13] = second compound 0.316 µM, first compound 0.0316 µM
[14] = second compound 0.316 µM, first compound 0.1 µM
[15] = second compound 0.316 µM, first compound 0.316 µM
[16] = second compound 0.316 µM, first compound 1 µM
[17] = second compound 0.316 µM, first compound 3.16 µM
[18] = second compound 0.316 µM, first compound 10 µM
[19] = second compound 1 µM, first compound 0.0316 µM
[20] = second compound 1 µM, first compound 0.1 µM
[21] = second compound 1 µM, first compound 0.316 µM
[22] = second compound 1 µM, first compound 1 µM
[23] = second compound 1 µM, first compound 3.16 µM
[24] = second compound 1 µM, first compound 10 µM
[25] = second compound 3.16 µM, first compound 0.0316 µM
[26] = second compound 3.16 µM, first compound 0.1 µM
[27] = second compound 3.16 µM, first compound 0.316 µM
[28] = second compound 3.16 µM, first compound 1 µM
[29] = second compound 3.16 µM, first compound 3.16 µM
[30] = second compound 3.16 µM, first compound 10 µM
[31] = second compound 10 µM, first compound 0.0316 µM
[32] = second compound 10 µM, first compound 0.1 µM
[33] = second compound 10 µM, first compound 0.316 µM
[34] = second compound 10 µM, first compound 1 µM
[35] = second compound 10 µM, first compound 3.16 µM
[36] = second compound 10 µM, first compound 10 µM
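Also: spheroids exposed to drugs for 7 days before viability reading.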

## CC(C)n1c(=O)n(C)c2cnc3cc(F)c(-c4ccc(OCCCN5CCCCC5)nc4)cc3c21 + CN(C)c1ccc(Nc2c3ccc(NC(=O)CCN4CCCC4)cc3nc3cc(NC(=O)CCN4CCCC4)ccc23)cc1
Second compound 0.0316 µM
  pIC50: < 5.00
Second compound 0.1 µM
  pIC50: < 5.00
Second compound 0.316 µM
  pIC50: < 5.00
Second compound 1 µM
  pIC50: < 5.00
Second compound 3.16 µM
  pIC50: < 5.00
Second compound 10 µM
  pIC50: 6.05
[1]
  viability, T/C: 104%
[2]
  viability, T/C: 103%
[3]
  viability, T/C: 100%
[4]
  viability, T/C: 87.1%
[5]
  viability, T/C: 84.1%
[6]
  viability, T/C: 66.8%
[7]
  viability, T/C: 104%
[8]
  viability, T/C: 106%
[9]
  viability, T/C: 91.8%
[10]
  viability, T/C: 95.7%
[11]
  viability, T/C: 92.4%
[12]
  viability, T/C: 63.5%
[13]
  viability, T/C: 111%
[14]
  viability, T/C: 96.8%
[15]
  viability, T/C: 103%
[16]
  viability, T/C: 89.8%
[17]
  viability, T/C: 84.7%
[18]
  viability, T/C: 64.9%
[19]
  viability, T/C: 99.8%
[20]
  viability, T/C: 112%
[21]
  viability, T/C: 100%
[22]
  viability, T/C: 98.5%
[23]
  viability, T/C: 96.9%
[24]
  viability, T/C: 73.6%
[25]
  viability, T/C: 90.7%
[26]
  viability, T/C: 98%
[27]
  viability, T/C: 91.2%
[28]
  viability, T/C: 80.7%
[29]
  viability, T/C: 77%
[30]
  viability, T/C: 59.6%
[31]
  viability, T/C: 70%
[32]
  viability, T/C: 60.7%
[33]
  viability, T/C: 57.4%
[34]
  viability, T/C: 48.4%
[35]
  viability, T/C: 43.6%
[36]
  viability, T/C: 31.5%

## CC1COCCN1c1cc(C2(S(C)(=N)=O)CC2)nc(-c2ccnc3[nH]ccc23)n1 (centres undefined) + CN(C)c1ccc(Nc2c3ccc(NC(=O)CCN4CCCC4)cc3nc3cc(NC(=O)CCN4CCCC4)ccc23)cc1
Second compound 0.0316 µM
  pIC50: < 5.00
Second compound 0.1 µM
  pIC50: 5.02
Second compound 0.316 µM
  pIC50: < 5.00
Second compound 1 µM
  pIC50: < 5.00
Second compound 3.16 µM
  pIC50: < 5.00
Second compound 10 µM
  pIC50: 5.36
[1]
  viability, T/C: 93.1%
[2]
  viability, T/C: 97.1%
[3]
  viability, T/C: 86.9%
[4]
  viability, T/C: 77.9%
[5]
  viability, T/C: 62.9%
[6]
  viability, T/C: 52.3%
[7]
  viability, T/C: 97.5%
[8]
  viability, T/C: 97.7%
[9]
  viability, T/C: 95.1%
[10]
  viability, T/C: 71.5%
[11]
  viability, T/C: 64.8%
[12]
  viability, T/C: 48%
[13]
  viability, T/C: 96.6%
[14]
  viability, T/C: 90.8%
[15]
  viability, T/C: 87.3%
[16]
  viability, T/C: 85.1%
[17]
  viability, T/C: 54.2%
[18]
  viability, T/C: 51.2%
[19]
  viability, T/C: 90.4%
[20]
  viability, T/C: 103%
[21]
  viability, T/C: 94.1%
[22]
  viability, T/C: 76.4%
[23]
  viability, T/C: 64.3%
[24]
  viability, T/C: 57.3%
[25]
  viability, T/C: 94.5%
[26]
  viability, T/C: 83.1%
[27]
  viability, T/C: 78.2%
[28]
  viability, T/C: 80%
[29]
  viability, T/C: 61.4%
[30]
  viability, T/C: 50%
[31]
  viability, T/C: 66.8%
[32]
  viability, T/C: 67.1%
[33]
  viability, T/C: 65.6%
[34]
  viability, T/C: 52.8%
[35]
  viability, T/C: 53.8%
[36]
  viability, T/C: 44.9%
